Results from PubChem BioAssay AID504645 (Southern Research Specialized Biocontainment Screening …, 2011).
Where “and” joins values, the source holds several entries; their conditions need not be identical. Identical values can stand only once. Where a SMILES comes first, the peptide text is derived from it. The star is where a group is joined. Cbz = O=C(OCc1ccccc1)*

System: M. tuberculosis H37Rv growth inhibition, glycerol-free medium
Assay: M tuberculosis H37Rv growth inhibition in absence of glycerol, confirmatory, IC90 (AID 504645);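 further: bacteria grown one week before the viability dye was added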
Details: for IC90: measured here: 90% growth inhibition

Structure (SMILES) | IC50 | IC90
COC(=O)C(C)Sc1ncnc2c1nnn2-c1ccc(F)cc1 (stereo unspecified) | 2420 nM | 4380 nM
CCC(C)Nc1ccc(NC(C)CC)cc1 (stereo unspecified) | 1270 nM | 1940 nM
O=C(CSc1nc2c(c(=O)[nH]1)CCC2)Nc1ccc(F)cc1 | 17100 nM | > 25000 nM
Cc1cccc(N2CCN(C(=O)c3ccc(CNc4c(N5CCC(C)CC5)c(=O)c4=O)cc3)CC2)c1C |  | > 25000 nM
COc1cc(NC(=O)C/C(C)=N/NC(=O)c2ccccn2)c(OC)cc1Cl | 2780 nM | 7910 nM
O=C(c1ccc(CNc2c(N3CCCC3)c(=O)c2=O)cc1)N1CC=C(c2ccccc2)CC1 | 2520 nM | 6760 nM
Cc1cccc(-c2oc3ccc(-c4ccc5c(c4)OCO5)cc3c2C#Cc2cncn2C)c1 | 1380 nM | 1860 nM
O=C(CSc1nc2ccccc2c(=O)[nH]1)NC1CCCCC1 | 70 nM | 130 nM
Cc1nn2c(NCc3ccccn3)cc(C(C)C)nc2c1-c1ccccc1 | 1970 nM | 2540 nM
O=C(c1ccc(CNc2c(N3CCCC3)c(=O)c2=O)cc1)N1CCc2ccccc2C1 | 4370 nM | > 25000 nM
c1ccc(/N=C2\N=C(Nc3ccccn3)c3ccccc32)nc1 | 170 nM | 290 nM
CCOC1OC(=O)C(Cl)=C1Nc1ccccc1C (stereo unspecified) | 2260 nM | 5590 nM
CCOC(=O)CSc1ncnc2c1cnn2-c1ccc(C)cc1C | 4490 nM | 6980 nM
O=C(/C=C\c1cccs1)N1CCN(Cc2ccc3c(c2)OCO3)CC1 | 360 nM | 1570 nM
CCOC(=O)C(C)Sc1ncnc2c1nnn2-c1ccc(F)cc1 (stereo unspecified) | 1200 nM and 4550 nM | 2920 nM and 8280 nM
Cc1nc(SCC(=O)NC2CCCCC2)[nH]c(=O)c1C | 670 nM and 2390 nM | 1070 nM and 3730 nM
CCOc1ccc(NC(=O)CSc2nc(O)c(C)c(=O)n2-c2ccc(F)cc2)cc1 |  | > 25000 nM
CCC(Sc1ncnc2c1nnn2-c1ccc(F)cc1)C(=O)OC (stereo unspecified) | 11900 nM | > 25000 nM
Cc1cc(Br)ccc1NC(=O)c1cnc(N2CCN(c3ccccn3)CC2)c2ccccc12 | 1250 nM | 2000 nM
COC(=O)CSc1ncnc2c1cnn2-c1ccc(C)cc1C | 4500 nM | 6950 nM
CC1CC(C)CN(C(=O)C2CCC(CNc3c(N4CCCCC4)c(=O)c3=O)CC2)C1 (stereo unspecified) | 13300 nM | > 25000 nM
Nc1c(C(=O)NC2CCCCC2)nsc1C(=O)OCC(=O)NC1CCCCC1 | 1230 nM | 2640 nM

Structure (SMILES) | IC50 | IC90
CCOC(=O)CSc1ncnc2c1nnn2-c1ccc(F)cc1 | 3640 nM | 6160 nM
CC1CC(C)CN(C(=O)c2ccc(CNc3c(N4CCCC4)c(=O)c3=O)cc2)C1 (stereo unspecified) | 6340 nM | > 25000 nM
CC[N+](C)(CC)CCCCOc1ccc2c(c1)C(=O)c1cc(OCCCC[N+](C)(CC)CC)ccc1-2 | 1320 nM | 2130 nM
CC(C)CCNC(=O)CSc1nc2ccccc2c(=O)[nH]1 | 2310 nM | 3830 nM
COc1ccc(N2CCN(C(=O)c3ccc(CNc4c(N5CCOCC5)c(=O)c4=O)cc3)CC2)cc1 | 3410 nM | > 25000 nM
CCOC(=O)COn1c2c(c3c4no[n+]([O-])c4ccc31)CCCC2 | 1850 nM | 2860 nM
Cc1ccc(C(=O)N/N=C(/CC(=O)c2cccs2)C(F)(F)F)cc1 | 2100 nM | 2810 nM
CCOC(=O)CSc1ncnc2c1cnn2-c1ccc(C)cc1 | 10100 nM | > 25000 nM
CC(C)OC(=O)CSc1ncnc2c1cnn2-c1ccccc1 | 17900 nM | > 25000 nM
CC1CCN(C(=O)C2CCN(c3nnc(-n4cccc4)s3)CC2)CC1 | 1640 nM | 3340 nM
COC(=O)C(C)Oc1ccc(Cc2ncc(C(F)(F)F)cc2Cl)cc1 (stereo unspecified) | 2620 nM | 4010 nM
S=c1nc[nH]c2nc[nH]c12 | 1480 nM | 1720 nM
O=C1C(Br)=Cc2cccc3cccc1c23 | 350 nM | 1130 nM
Cc1ccc2ccc3ccc(C)nc3c2n1 | 530 nM | 780 nM
CC(=NCc1ccc2c(c1)OCO2)C1=C(O)c2ccccc2C1=O | 330 nM | 2350 nM
Cc1cc(C)n2nc(N)c(N=Nc3ccccc3)c2n1 | 2490 nM | 3560 nM
Cc1ccc(NC(=O)C2C3/C=C\CCCCC32)cc1C (stereo unspecified) | 1720 nM | > 25000 nM
CCc1c(C)nc(SCC(=O)Nc2ccc3c(c2)OCCO3)[nH]c1=O | 19400 nM | > 25000 nM
CCOc1ccc(-c2cc(C)[n+](CCc3ccc(OC)c(OC)c3)c(-c3ccc(OCC)cc3)c2)cc1 | 660 nM | 1030 nM
COC(=O)C(C)Oc1ccc(-c2nccc(-c3ccccn3)n2)cc1 (stereo unspecified) | 2640 nM | 4530 nM
COC(=O)c1cc(=O)n(-c2ccc(F)cc2)c(=Nc2ccc(F)cc2)s1 | 640 nM | 1000 nM
CCc1c(C)nc(SCC(=O)NC2CCCC2)[nH]c1=O | 2250 nM | 3210 nM

Structure (SMILES) | IC50 | IC90
Cc1cccc(/C=C/C(=O)c2ccc([N+](=O)[O-])o2)c1 | 450 nM | 650 nM
O=C(CSc1nc2ccccc2c(=O)[nH]1)NCc1ccc(Cl)cc1 | 630 nM and 2190 nM | 900 nM and 3160 nM
Cc1ccc2c(c1)c(C1=c3ccccc3=NC1=O)c(O)n2C | 1460 nM | 3610 nM
CCOC(=O)CSc1ncnc2c1cnn2-c1ccc(Cl)cc1 | 4980 nM | > 25000 nM
O=C(/C=C/c1ccccc1)N1CCN(CCN2C(=O)c3cccc4cccc(c34)C2=O)CC1 | 2070 nM | 5380 nM
O=C(c1ccc(CNc2c(N3CCOCC3)c(=O)c2=O)cc1)N1CC=C(c2ccccc2)CC1 | 1110 nM | 2170 nM
CC1CCCN(C(=O)C2CCC(CNc3c(N4CCCCC4)c(=O)c3=O)CC2)C1 (stereo unspecified) | 19000 nM | > 25000 nM
CCc1ccc(/C=C2/C(=O)N(C)C(=S)N2CC(=O)OC)s1 | 1910 nM | 4610 nM
CC(C)NC(=O)c1sc(=S)n2c1[nH]c(=O)c1ccc(C(=O)NCCc3ccc(Cl)cc3)cc12 | 310 nM | 530 nM
CCOC(=O)CSc1ncnc2c1cnn2-c1ccccc1 | 13100 nM | > 25000 nM
COc1ccc(-n2nnc3c(SCC(=O)OCc4ccccc4)ncnc32)cc1 | 2810 nM | > 25000 nM
CC1CCN(C(=O)c2ccc(CNc3c(N4CCCC4)c(=O)c3=O)cc2)CC1 | 5850 nM | 6690 nM
O=C(NCC(c1cccs1)N1CCOCC1)c1cc([N+](=O)[O-])cc([N+](=O)[O-])c1 (stereo unspecified) | 410 nM | 910 nM
CCOC(=O)COc1ccc(/C=C2\NC(=S)N(CC)C2=O)cc1 | 2620 nM | 4740 nM
COC(=O)C1CC(=O)N(c2ccc(OCc3ccccc3Cl)cc2)C1 (stereo unspecified) | 750 nM | 3010 nM
CC(=O)c1ccc(NC(=O)c2ccc(CNc3c(N4CCOCC4)c(=O)c3=O)cc2)cc1 | 20000 nM | > 25000 nM
COC(=O)CCc1nc2c(C#N)c(-c3ccc(Cl)cc3)ccn2n1 | 2540 nM | 3800 nM
CCOC(=O)CNC(=O)[C@H](Cc1ccccc1)NC(=O)OCc1ccccc1 (Cbz-Phe-Gly-OEt) | 2150 nM | 3090 nM
CCOC(=O)c1ccc(NC(=O)Cn2ncc(Cl)c(Cl)c2=O)cc1 | 440 nM | 1170 nM
CC1CCCN(C(=O)c2ccc(CNc3c(N4CCCCC4)c(=O)c3=O)cc2)C1 (stereo unspecified) | 2580 nM | > 25000 nM
